In article doi:10.1101/2024.08.19.608619, “Discovery of potent SARS-CoV-2 nsp3 macrodomain inhibitors uncovers lack of translation to cellular antiviral response” (bioRxiv, 2024):
Read-outs that look alike come from different tables or passages of the source.

Legend:
[1] = molecular target: T1, SARS-CoV-2 nsp3-mac1 (Severe acute respiratory syndrome coronavirus 2, UniProt P0DTD1); assay: biochemical; type: biochemical; settings: SARS-CoV-2 nsp3 macrodomain TR-FRET single point
[2] = molecular target: T1, SARS-CoV-2 nsp3-mac1; assay: biochemical; design: SARS-CoV-2 nsp3 macrodomain TR-FRET single point, per cent inhibition, n=2
[3] = read-out: perc_inhibition_mean, batch_name=ASAP-0000196-002
[4] = read-out: perc_inhibition_mean, batch_name=ASAP-0000332-001
[5] = read-out: perc_inhibition_mean, batch_name=ASAP-0000316-001
[6] = read-out: perc_inhibition_mean, batch_name=ASAP-0000200-002
[7] = read-out: perc_inhibition_mean, batch_name=ASAP-0000466-001
[8] = read-out: perc_inhibition_mean, batch_name=ASAP-0000282-001
[9] = read-out: perc_inhibition_mean, batch_name=ASAP-0000245-001
[10] = read-out: perc_inhibition_mean, batch_name=ASAP-0000290-001
[11] = read-out: perc_inhibition_mean, batch_name=ASAP-0000408-001
[12] = read-out: perc_inhibition_mean, batch_name=ASAP-0000255-001
[13] = read-out: perc_inhibition_mean, batch_name=ASAP-0000401-001
[14] = read-out: perc_inhibition_mean, batch_name=ASAP-0000243-001
[15] = read-out: perc_inhibition_mean, batch_name=ASAP-0000411-001
[16] = read-out: perc_inhibition_mean, batch_name=ASAP-0000322-001
[17] = read-out: perc_inhibition_mean, batch_name=ASAP-0000242-001
[18] = read-out: perc_inhibition_mean, batch_name=ASAP-0000361-001
[19] = read-out: perc_inhibition_mean, batch_name=ASAP-0000448-001

Structure (SMILES): c1cc(-c2nnc(Sc3ncnc4[nH]ccc34)[nH]2)ccn1 [ASAP-0000196]
- perc_inhibition_mean ([1]; concentration 50.0 uM): 5.47%
- perc_inhibition_mean ([1]; concentration 50.0 uM, n=2): 10.682%
- perc_inhibition_mean ([1]; concentration 100.0 uM, n=2): 3.318%
- inhibition at 50 µM ([2]; read-out: perc_inhibition_mean, batch_name=ASAP-0000196-001): 5.47%
- inhibition at 50 µM [2, 3]: 10.7%
- inhibition at 100 µM [2, 3]: 3.32%

Structure (SMILES): Cc1cocc1C(=O)N(CCC(=O)N1CCNCC1)Cc1cccc(Cl)c1 [ASAP-0000332]
- perc_inhibition_mean ([1]; concentration 49.75 uM, n=2): 1.398%
- perc_inhibition_mean ([1]; concentration 99.5 uM, n=2): 0.51%
- inhibition at 49.75 µM [2, 4]: 1.4%
- inhibition at 99.5 µM [2, 4]: 0.51%

Structure (SMILES): CCc1n[nH]c(NC(=O)c2ccc(NC(=O)Nc3ccccc3)cc2)c1Br [ASAP-0000316]
- perc_inhibition_mean ([1]; concentration 49.75 uM, n=2): -5.574%
- perc_inhibition_mean ([1]; concentration 99.5 uM, n=2): 0.467%
- inhibition at 49.75 µM [2, 5]: -5.57%
- inhibition at 99.5 µM [2, 5]: 0.467%

Structure (SMILES): CC(C)n1ncnc1CNc1cc2c(=O)nc[nH]c2cn1 [ASAP-0000121]
- perc_inhibition_mean ([1]; concentration 50.0 uM): -1.486%
- inhibition at 50 µM ([2]; read-out: perc_inhibition_mean, batch_name=ASAP-0000121-001): -1.49%

Structure (SMILES): Cc1nc(C)c(CC(=O)Nc2cnc3[nH]ncc3c2)c(=O)[nH]1 [ASAP-0000041]
- perc_inhibition_mean ([1]; concentration 50.0 uM): 4.825%
- inhibition at 50 µM ([2]; read-out: perc_inhibition_mean, batch_name=ASAP-0000041-001): 4.83%

Structure (SMILES): Cc1nc(NC(=O)[C@@H]2CCCOC2)c2ccnc-2[nH]1 [ASAP-0000078]
- perc_inhibition_mean ([1]; concentration 50.0 uM): -3.202%
- inhibition at 50 µM ([2]; read-out: perc_inhibition_mean, batch_name=ASAP-0000078-001): -3.2%

Structure (SMILES): CCO[C@@H]1C[C@@H](Nc2ncnc3[nH]ccc23)C12CCOCC2 [ASAP-0000093]
- perc_inhibition_mean ([1]; concentration 50.0 uM): 2.316%
- inhibition at 50 µM ([2]; read-out: perc_inhibition_mean, batch_name=ASAP-0000093-001): 2.32%

Structure (SMILES): Cc1cc(C(F)(F)F)nn1CCNc1ncnc2[nH]ccc12 [ASAP-0000200]
- perc_inhibition_mean ([1]; concentration 50.0 uM): 4.602%
- perc_inhibition_mean ([1]; concentration 50.0 uM, n=2): -3.037%
- perc_inhibition_mean ([1]; concentration 100.0 uM, n=2): -2.206%
- inhibition at 50 µM ([2]; read-out: perc_inhibition_mean, batch_name=ASAP-0000200-001): 4.6%
- inhibition at 50 µM [2, 6]: -3.04%
- inhibition at 100 µM [2, 6]: -2.21%

Structure (SMILES): Cc1[nH]c2ncnc(NC(=O)c3ncn(-c4ccccc4)n3)c2c1C [ASAP-0000027]
- perc_inhibition_mean ([1]; concentration 50.0 uM): 7.104%
- inhibition at 50 µM ([2]; read-out: perc_inhibition_mean, batch_name=ASAP-0000027-001): 7.1%

Structure (SMILES): CC(C)[C@@H](CCN(C)C(=O)c1nn2cccnc2c1Cl)Nc1ncnc2[nH]ccc12 [ASAP-0000466]
- perc_inhibition_mean ([1]; concentration 49.75 uM): 0.844%
- perc_inhibition_mean ([1]; concentration 99.5 uM): 1.645%
- inhibition at 49.75 µM [2, 7]: 0.844%
- inhibition at 99.5 µM [2, 7]: 1.65%

Structure (SMILES): COc1cc(Nc2ncnc3[nH]ccc23)ccc1NC(C)=O [ASAP-0000060]
- perc_inhibition_mean ([1]; concentration 50.0 uM): -7.761%
- inhibition at 50 µM ([2]; read-out: perc_inhibition_mean, batch_name=ASAP-0000060-001): -7.76%

Structure (SMILES): CC(C)n1cc(S(=O)(=O)Nc2cnc3[nH]ncc3c2)cn1 [ASAP-0000139]
- perc_inhibition_mean ([1]; concentration 50.0 uM): 1.555%
- inhibition at 50 µM ([2]; read-out: perc_inhibition_mean, batch_name=ASAP-0000139-001): 1.55%

Structure (SMILES): O=C(NC1CCC(F)(F)CC1)c1ncnc2[nH]ccc12 [ASAP-0000282]
- perc_inhibition_mean ([1]; concentration 49.75 uM, n=2): -3.47%
- perc_inhibition_mean ([1]; concentration 99.5 uM, n=2): -5.78%
- inhibition at 49.75 µM [2, 8]: -3.47%
- inhibition at 99.5 µM [2, 8]: -5.78%

Structure (SMILES): CN(c1ncnc2[nH]ccc12)[C@H]1CCN(S(C)(=O)=O)C1 [ASAP-0000112]
- perc_inhibition_mean ([1]; concentration 50.0 uM): -0.371%
- inhibition at 50 µM ([2]; read-out: perc_inhibition_mean, batch_name=ASAP-0000112-001): -0.371%

Structure (SMILES): c1ccc([C@@H](CNc2ncnc3n[nH]cc23)N2CCOCC2)cc1 [ASAP-0000001]
- perc_inhibition_mean ([1]; concentration 50.0 uM): -0.781%
- inhibition at 50 µM ([2]; read-out: perc_inhibition_mean, batch_name=ASAP-0000001-001): -0.781%

Structure (SMILES): FC(F)(F)Oc1ccccc1-c1ncnc2[nH]ccc12 [ASAP-0000245]
- perc_inhibition_mean ([1]; concentration 50.0 uM): -3.369%
- perc_inhibition_mean ([1]; concentration 100.0 uM): 2.117%
- inhibition at 50 µM [2, 9]: -3.37%
- inhibition at 100 µM [2, 9]: 2.12%

Structure (SMILES): CCCNC(=O)[C@H]1CCCN(c2ncnc3[nH]ccc23)C1 [ASAP-0000053]
- perc_inhibition_mean ([1]; concentration 50.0 uM): -4.36%
- inhibition at 50 µM ([2]; read-out: perc_inhibition_mean, batch_name=ASAP-0000053-001): -4.36%

Structure (SMILES): O=C1C[C@H](CNC(=O)c2ccc(NC(=O)Nc3ccccc3)cc2)CCN1 [ASAP-0000290]
- perc_inhibition_mean ([1]; concentration 49.75 uM, n=2): 1.223%
- perc_inhibition_mean ([1]; concentration 99.5 uM, n=2): 4.013%
- inhibition at 49.75 µM [2, 10]: 1.22%
- inhibition at 99.5 µM [2, 10]: 4.01%

Structure (SMILES): O=C(CCN(Cc1cccc(Cl)c1)C(=O)[C@@H]1CC1(F)F)N1CCNCC1 [ASAP-0000408]
- perc_inhibition_mean ([1]; concentration 49.75 uM): -2.073%
- perc_inhibition_mean ([1]; concentration 99.5 uM): -3.764%
- inhibition at 49.75 µM [2, 11]: -2.07%
- inhibition at 99.5 µM [2, 11]: -3.76%

Structure (SMILES): O=C(NCc1cccc(F)n1)c1cnc2nc[nH]c(=O)c2c1 [ASAP-0000255]
- perc_inhibition_mean ([1]; concentration 100.0 uM): -14.602%
- perc_inhibition_mean ([1]; concentration 50.0 uM, n=2): -14.823%
- inhibition at 50 µM [2, 12]: -14.8%
- inhibition at 100 µM [2, 12]: -14.6%

Structure (SMILES): Cc1cccc(Cl)c1-n1sc(=O)n(CC2CC2)c1=O [ASAP-0000110]
- perc_inhibition_mean ([1]; concentration 50.0 uM): 51.933%
- inhibition at 50 µM ([2]; read-out: perc_inhibition_mean, batch_name=ASAP-0000110-001): 51.9%

Structure (SMILES): O=C(CCN(Cc1cccc(Cl)c1)C(=O)C1CCC(O)CC1)N1CCNCC1 (centres unmarked) [ASAP-0000401]
- perc_inhibition_mean ([1]; concentration 49.75 uM): -4.315%
- perc_inhibition_mean ([1]; concentration 99.5 uM): 0.465%
- inhibition at 49.75 µM [2, 13]: -4.32%
- inhibition at 99.5 µM [2, 13]: 0.465%

Structure (SMILES): CO[C@@]1(C(=O)O)CCN(C(=O)c2ncnc3[nH]ccc23)C1 [ASAP-0000243]
- perc_inhibition_mean ([1]; concentration 50.0 uM): -4.181%
- perc_inhibition_mean ([1]; concentration 100.0 uM): -3.71%
- inhibition at 50 µM [2, 14]: -4.18%
- inhibition at 100 µM [2, 14]: -3.71%

Structure (SMILES): O=C(c1ccccc1)N1CCC(c2ccn3ncc(C(=O)N4CCc5cccnc54)c3c2)CC1 [ASAP-0000411]
- perc_inhibition_mean ([1]; concentration 49.75 uM): -4.67%
- perc_inhibition_mean ([1]; concentration 99.5 uM): -8.02%
- inhibition at 49.75 µM [2, 15]: -4.67%
- inhibition at 99.5 µM [2, 15]: -8.02%

Structure (SMILES): C[C@@H](O)[C@@H]1CN(C(=O)c2ncnc3[nH]ccc23)CCO1 [ASAP-0000073]
- perc_inhibition_mean ([1]; concentration 50.0 uM): -3.131%
- inhibition at 50 µM ([2]; read-out: perc_inhibition_mean, batch_name=ASAP-0000073-001): -3.13%

Structure (SMILES): CC(C)n1nccc1NC(=O)c1ccc(NC(=O)Nc2ccccc2)cc1 [ASAP-0000322]
- perc_inhibition_mean ([1]; concentration 49.75 uM, n=2): -1.998%
- perc_inhibition_mean ([1]; concentration 99.5 uM, n=2): -0.924%
- inhibition at 49.75 µM [2, 16]: -2%
- inhibition at 99.5 µM [2, 16]: -0.924%

Structure (SMILES): Cn1cnc2c(Nc3cncc(CN)c3)nc(N)nc21 [ASAP-0000242]
- perc_inhibition_mean ([1]; concentration 50.0 uM): -14.217%
- perc_inhibition_mean ([1]; concentration 100.0 uM): -28.278%
- inhibition at 50 µM [2, 17]: -14.2%
- inhibition at 100 µM [2, 17]: -28.3%

Structure (SMILES): Cc1cccc(OCCNc2ncnc3nc[nH]c23)c1 [ASAP-0000014]
- perc_inhibition_mean ([1]; concentration 50.0 uM): 3.91%
- inhibition at 50 µM ([2]; read-out: perc_inhibition_mean, batch_name=ASAP-0000014-001): 3.91%

Structure (SMILES): CCN(Cc1nnc(C)o1)C(=O)c1cnn2ccc(C3CCN(C(=O)c4ccccc4)CC3)cc12 [ASAP-0000361]
- perc_inhibition_mean ([1]; concentration 49.75 uM): 10.027%
- perc_inhibition_mean ([1]; concentration 99.5 uM): -5.306%
- inhibition at 49.75 µM [2, 18]: 10%
- inhibition at 99.5 µM [2, 18]: -5.31%

Structure (SMILES): Cn1cc([C@H]2CSCCN2c2ncnc3[nH]ccc23)cn1 [ASAP-0000448]
- perc_inhibition_mean ([1]; concentration 49.75 uM): -6.49%
- perc_inhibition_mean ([1]; concentration 99.5 uM): -3.463%
- inhibition at 49.75 µM [2, 19]: -6.49%
- inhibition at 99.5 µM [2, 19]: -3.46%
